Assay results as given in patent US20050164929A1, “Methods of preventing and treating inflammatory bowel disease” (LUPINE LOGIC, INC., priority 2000, published 2005).

Key:
[1] = system: NIH 3T3 murine embryonic lung fibroblasts; assay: BrdU incorporation (Studies L-117.01/02); format: cell-based, mouse; conditions: NIH 3T3, BrdU
Protocol: FIG. 19. […] Serum starved NIH 3T3 cells were treated with purified CG53135-01 (CG53135 in figure), 10% serum or vehicle only (control). DNA synthesis was measured in triplicate for each sample, using a BrdU incorporation assay. Data points represent average BrdU incorporation and bars represent standard error (SE).
(§1) Heterologous Protein Expression: CG53135-01 (batch 4A and 6) was used in these experiments. Protein was expressed using Escherichia coli (E. coli), BL21 (Novagen, Madison, Wis.), transformed with full-length CG53135-01 in a pETMY-hFGF20X/BL21 expression vector. Cells were harvested and disrupted, and then the soluble protein fraction was clarified by filtration and passed through a metal chelation column. The final protein fraction was dialyzed against phosphate buffered saline (PBS) plus 1 M L-arginine. Protein samples were stored at −70° C.
BrdU Incorporation: proliferative activity was measured by treatment of serum-starved cultured cells with a given agent and measurement of BrdU incorporation during DNA synthesis. Cells were cultured in respective manufacturer recommended basal growth medium supplemented with 10% fetal bovine serum or 10% calf serum as per manufacturer recommendations. Cells were grown in 96-well plates to confluence at 37° C. in 10% CO2/air (to subconfluence at 5% CO2 for dedifferentiated chondrocytes and NHOst). […]

[2] = system: Balb MK mouse keratinocytes; assay: BrdU incorporation (Studies L-117.01/02); format: cell-based
Excerpt: as §1
(§2) BrdU Incorporation: proliferative activity was measured by treatment of serum-starved cultured cells with a given agent and measurement of BrdU incorporation during DNA synthesis. Cells were cultured in respective manufacturer recommended basal growth medium supplemented with 10% fetal bovine serum or 10% calf serum as per manufacturer recommendations. Cells were grown in 96-well plates to confluence at 37° C. in 10% CO2/air (to subconfluence at 5% CO2 for dedifferentiated chondrocytes and NHOst). Cells were then starved in respective basal growth medium for 24-72 hours. CG53135 protein purified from E. coli or pCEP4/Sec or pCEP4/Sec-FGF 20× enriched conditioned medium was added (10 μL/100 μL of culture) for 18 hours. BrdU (10 μM final concentration) was then added and incubated with the cells for 5 hours. BrdU incorporation was assayed according to the manufacturer's specifications (Roche Molecular Biochemicals, Indianapolis, Ind.).

[3] = system: CCD 1106 KERTr human keratinocytes; assay: BrdU incorporation (Studies L-117.01/02); format: cell-based
Excerpt: as §1, §2

[4] = system: CCD-1070Sk normal human foreskin fibroblasts; assay: BrdU incorporation (Studies L-117.01/02); format: cell-based
Excerpt: as §1, §2

[5] = system: Jurkat, an acute T-lymphoblastic leukemia cell line; assay: BrdU incorporation (Studies L-117.01/02); format: cell-based
Excerpt: as §1, §2

[6] = system: TF-1, an erythroblastic leukemia cell line; assay: BrdU incorporation (Studies L-117.01/02); format: cell-based
Excerpt: as §1, §2

[7] = system: human aorta smooth muscle cells (HSMC); assay: BrdU incorporation (Studies L-117.01/02); format: cell-based
Excerpt: as §1, §2

[8] = system: human coronary artery smooth muscle cells; assay: BrdU incorporation (Studies L-117.01/02); format: cell-based
Excerpt: as §1, §2

[9] = system: human pulmonary artery smooth muscle cells; assay: BrdU incorporation (Studies L-117.01/02); format: cell-based
Excerpt: as §1, §2

[10] = system: mouse skeletal muscle cells; assay: BrdU incorporation (Studies L-117.01/02); format: cell-based
Excerpt: as §1, §2

[11] = system: primary human osteoblasts (NHOst); assay: BrdU incorporation (Studies L-117.01/02); format: cell-based
Excerpt: as §1, §2

[12] = system: rabbit synoviocyte cell line, HIG-82; assay: BrdU incorporation (Studies L-117.01/02); format: cell-based
Excerpt: as §1, §2

[13] = system: MG-63 osteosarcoma cell line; assay: BrdU incorporation (Studies L-117.01/02); format: cell-based, human
Excerpt: as §1
as §2, with “BrdU incorporation was assayed according to the manufacturer's specifications (Roche Molecular Biochemicals, Indianapolis, Ind.).” left out

[14] = system: breast epithelial cell line, B5589; assay: BrdU incorporation (Studies L-117.01/02); format: cell-based, human
Excerpt: as §1
as §2, with “BrdU incorporation was assayed according to the manufacturer's specifications (Roche Molecular Biochemicals, Indianapolis, Ind.).” left out

[15] = system: NIH 3T3 cells; assay: Growth assay (cell count); format: cell-based, mouse; conditions: 1 μg, 48 hours
Protocol: FIG. 20. CG53135 stimulates Growth of NIH 3T3 Fibroblasts. Duplicate wells of serum starved NIH 3T3 cells were treated for […] with purified CG53135-01 (1 ug) or vehicle control. Cell counts for each well were determined in duplicate. Y— axis identifies cell number, which is the average of 4 cell counts (treatment duplicates×duplicate counts) and standard error (SE).
Growth Assay: growth activity was obtained by measuring cell number following treatment of cultured cells with a given agent for a specified period of time. In general, cells grown to ˜20% confluency in 6-well dishes were treated with basal medium supplemented with CG53135 or control, incubated for several days, trypsinized and counted using a Coulter Z1 Particle Counter.
To determine if recombinant CG53135-01 sustained cell growth, NIH 3T3 cells were cultured with 1 μg CG53135-01 or control for 48 hours and then counted (FIG. 20). CG53135 induced an approximately 2-fold increase in cell number relative to control in this assay.

[16] = system: bovine aortic endothelial cells; assay: Cell survival and BrdU incorporation in endothelial cells; format: cell-based; conditions: BAEC
Protocol: as §2
(§3) Effects of CG53135 on Endothelial Cells: protein therapeutic agents may inhibit or promote angiogenesis, the process through which endothelial cells differentiate into capillaries. Because CG53135 belongs to the fibroblast growth factor family, some members of which have angiogenic properties, the antiangiogenic or pro-angiogenic effects of CG53135 on endothelial cell lines were evaluated. The following cell lines were chosen because they are cell types used in understanding angiogenesis in cancer: HUVEC (human umbilical vein endothelial cells), BAEC (bovine aortic endothelial cells), HMVEC-d (human endothelial, dermal capillary). These endothelial cell types undergo morphogenic differentiation and are representative of large vessel (HUVEC, BAEC) as well as capillary endothelial cells (HMVEC-d).

[17] = system: human dermal microvascular endothelial cells; assay: as above; format: cell-based; conditions: HMVEC-d
Protocol: as §2, §3

[18] = system: human umbilical vein endothelial cells; assay: as above; format: cell-based; conditions: HUVEC
Protocol: as §2, §3

[19] = system: HUVECS; assay: Tube formation; format: cell-based, human; conditions: HUVEC
[20] = system: HUVECS; assay: VEGF induced cell migration; format: cell-based, human; conditions: HUVEC
[21] = system: endothelial cells; assay: Proliferation summary for variants; format: cell-based; conditions: in vitro
Protocol: (§4) Experiments were performed to evaluate the proliferative response of representative cell types to CG53135, e.g., a full-length tagged variant (CG53135-01), a deletion variant (CG53135-02), and a full-length codon-optimized untagged variant (CG53135-05).
(§5) CG53135-02 (batch 1 and 13) was also used in these experiments. Protein was expressed in E. coli, BLR (DE3) (Novagen), transformed with the deletion variant CG53135-02 inserted into a pET24a vector (Novagen). A research cell bank (RCB) was produced and cell paste containing CG53135-02 was produced by fermentation of cells originating from the RCB. Cell membranes were disrupted by high-pressure homogenization, and lysate was clarified by centrifugation. CG53135-02 was purified by ion exchange chromatography. The final protein fraction was dialyzed against the formulation buffer (100 mM citrate, 1 mM ethylenediaminetetraacetic acid (EDTA), and 1 M L-arginine).
(§6) CG53135-05, DEV10, which were also used in these experiments, was prepared by Cambrex Biosciences (Hopkinton, Mass.) according to Process 1 as described in Section 6.18.1, infra.
as §2
(§7) The above described experiments were also performed using CG53135-02 and CG53135-05 protein products, and the results are summarized in the Conclusion section below.

[22] = system: mesenchymal and epithelial cells; assay: Proliferation summary for variants; format: cell-based; conditions: in vitro
Protocol: as §4, §5, §6, §2, §7

CG53135-01: FGF-20 wild type, stop codon removed; SEQ ID NOs 1 and 2; expressed as tagged full-length variant
half maximal concentration for induction of DNA synthesis [1]: ~10 ng/mL
induction of DNA synthesis [1]: dose-dependent manner
induction of DNA synthesis [2]: induced DNA synthesis
induction of DNA synthesis [3]: induced DNA synthesis
induction of DNA synthesis [4]: induced DNA synthesis
BrdU incorporation response [5]: did not show any response
effect on DNA synthesis [6]: no stimulatory effect
induction of DNA synthesis [7]: did not induce any significant increase in DNA synthesis
induction of DNA synthesis [8]: did not induce any significant increase in DNA synthesis
induction of DNA synthesis [9]: did not induce any significant increase in DNA synthesis
induction of DNA synthesis [10]: did not induce any significant increase in DNA synthesis
induction of DNA synthesis [11]: did not induce any significant increase in DNA synthesis
induction of DNA synthesis [12]: induced DNA synthesis
induction of DNA synthesis [13]: induced DNA synthesis
induction of DNA synthesis [14]: induced DNA synthesis
increase in cell number relative to control [15]: approximately 2 fold
cell survival and BrdU incorporation [16]: did not alter cell survival or have stimulatory effects on BrdU incorporation
cell survival and BrdU incorporation [17]: did not alter cell survival or have stimulatory effects on BrdU incorporation
cell survival and BrdU incorporation [18]: did not alter cell survival or have stimulatory effects on BrdU incorporation
tube formation [19]: did not inhibit tube formation
VEGF induced cell migration [20]: had no effect
proliferation of endothelial cells [21]: not
proliferation of mesenchymal and epithelial cells [22]: induces a proliferative response
